Data taken from patent publication US20260108588A1, “A COMPLEX COMPRISING A ALPHA-LACTALBUMIN AND A FATTY ACID OR LIPID FOR USE IN THE TREATMENT OR PREVENTION OF CANCER” (LINNANE PHARMA AB, priority 2022, published 2026).

Key:
[1] = system: intestinal gene expression; test: Transcriptomic analysis of intestinal tissue of Apc^Min/+ mice; assay type: in vivo
Method: Approximately 5 mg of tissue was homogenized using a Tissuelyser (Qiagen) and total RNA was extracted using the RNeasy kit (Qiagen), amplified using a GeneChip 3'IVT Express Kit, hybridized onto Mouse Genome 430 PM array strips, and scanned using the GeneAtlas system (Affymetrix). Data was normalized using Robust Multi Average implemented in the Transcriptome Analysis Console software (v.4.0.1.36, Applied Biosystems, ThermoFisher Scientific). Relative expression was analyzed by ANOVA using the empirical Bayes method, and genes with an absolute fold change >1.5 or 2.0 were considered differentially expressed. Heat maps were constructed using Graphpad Prism 9 and differentially expressed genes were analyzed using Ingenuity Pathway Analysis software (IPA, Qiagen).

HT29 cells = test: Colony assay; assay type: cell-based, human; conditions: HT29, 7, 21 and 35 μM
Method: (§1) Cells were seeded on 12-well plates (1×10^3 cells/well) and incubated overnight. Cells were treated with different complexes: BAMLET (7, 21, and 35 μM) or alpha1-oleate (7, 21, and 35 μM) in serum-free media and incubated for one hour at 37° C., 5% CO2. The incubation was continued after the addition of FCS to the media. On day ten post-treatment, the cells were washed once and fixed with cold methanol (300 μl) for 15 minutes on ice. Finally, colonies of cells were stained with hematoxylin (ThermoFisher Scientific, Cat #7211) for five minutes and images were captured under a dissecting microscope (Carl Zeiss). The experiment was repeated twice for each cell line.

DLD1 cells = test: Colony assay; assay type: cell-based, human; conditions: DLD1, 7, 21 and 35 μM
Method: as §1

[2] = system: intestinal tumors of Apc^Min/+ mice; test: Intestinal cancer model in Apc^Min/+ mice, BAMLET in the drinking water (eight weeks and long term); assay type: in vivo; conditions: vs sham
Method: (§2) Apc^Min/+ mice were obtained from Jackson Laboratories at about eight weeks of age. Genotyping was performed by PCR analysis of genomic DNA obtained from blood collected from the retro-orbital sinus. Multiple tumors were developed in the small intestine at eight to ten weeks. Mice were acclimated for about two weeks at the local animal facility at BMC, Lund University in order to reduce stress from transportation.
(§3) For BAMLET prophylaxis protocol, ten-week-old female Apc^Min/+ mice (n=10 mice per group) were provided daily with BAMLET (20 mg/day in 5 ml PBS) in the drinking water for eight weeks and sacrificed at 18 weeks of age. A similar treatment was used in the survival study groups where mice were observed until 37 weeks of age.
(§4) Mice were sacrificed by isoflurane inhalation. Tumor enumeration and sample collection was presented as previously described^28. Tumor numbers and size were determined using a dissecting microscope (Olympus) and evaluated by three blinded investigators.
(§5) The opened intestinal segments were spread flat between sheets of filter paper and fixed overnight in 10% neutral buffered formalin. Formalin-fixed sections were transferred to 70% ethanol and stained with 0.2% methylene blue (Sigma, #M9140). Stained sections were rinsed in deionized water and imaged by a dissecting microscope.
(§6) Swiss rolls of longitudinally opened intestinal segments were fixed overnight in 10% neutral buffered formalin. Samples were embedded in paraffin and 5 μm thick sections were further processed for histology and immunohistochemistry using antibodies for bovine alpha-Lactalbumin (ThermoFisher Scientific, Cat #A10-128A), β-catenin (CellSignaling, Cat #9562), Cyclin D1 (ThermoFisher Scientific, Cat #SC8396), Ki-67 (BD Biosciences, Cat #556003), VEGF (Abcam, Cat #ab46154), PD-1 (Abcam, Cat #ab214421) and TTF-1 (Abcam, Cat #ab227652) as previously described^28 with slight modifications. Citrate buffer (Dako Target Retrieval Solution, Agilent, Cat #S1699) was used for antigen retrieval for Cyclin D1, Ki-67, VEGF, bovine alpha-Lactalbumin and β-catenin staining. EDTA buffer (Abcam, Cat #ab64216) was used for antigen retrieval for TTF-1 staining. Immunohistochemistry was quantified by ImageJ. For Hematoxylin-Eosin (H&E) staining, Hematoxylin (ThermoFisher Scientific, Cat #7211) was used followed by Eosin-Y (ThermoFisher Scientific, Cat #7111) for counterstaining. Images were captured using the AX10 microscope or the Hamamatzu Nanozoomer scanner (Carl Zeiss) and the DAB-positive beta-catenin antibody fields (4-10) for each organ cross-sections were quantified by ImageJ.

[3] = system: lungs, livers, kidneys and spleens of Apc^Min/+ mice; test: Macroscopy, histology and immunohistochemistry of organs outside the intestine of Apc^Min/+ mice, long-term drinking water; assay type: in vivo
Method: as §3, §6

[4] = system: intestinal tumors of Apc^Min/+ mice; test: Intestinal cancer model in Apc^Min/+ mice, BAMLET oral gavage, tumor enumeration and histology; assay type: in vivo
Method: as §2
For BAMLET therapeutic protocol, ten-week-old female mice (n=10 per group) were orally gavaged with 20 mg of BAMLET in 400 μl PBS, twice daily for ten days. Mice were not given water or food five hours prior to BAMLET administration. Food and water were provided 30 minutes after BAMLET oral administration. Sham treated mice were gavaged with 400 μl PBS. Mice were sacrificed two weeks and five weeks after the end of the treatment and intestinal tissue samples were collected for further analysis.
as §4, §5, §6

healthy C57BL/6 mice = test: BAMLET in healthy C57BL/6 mice: macroscopic inspection and intestinal gene expression analysis
Method: Approximately 5 mg of tissue was homogenized using a Tissuelyser (Qiagen) and total RNA was extracted using the RNeasy kit (Qiagen), amplified using a GeneChip 3'IVT Express Kit, hybridized onto Mouse Genome 430 PM array strips, and scanned using the GeneAtlas system (Affymetrix). Data was normalized using Robust Multi Average implemented in the Transcriptome Analysis Console software (v.4.0.1.36, Applied Biosystems, ThermoFisher Scientific). Relative expression was analyzed by ANOVA using the empirical Bayes method, and genes with an absolute fold change >1.5 or 2.0 were considered differentially expressed.
To identify effects on healthy tissues, healthy C57BL/6 mice received BAMLET by oral gavage or in the drinking water (FIG. 6). The effects were evaluated by macroscopic inspection of intestinal tissues and gene expression analysis.

PD-1 = PD-1 staining of intestinal sections; assay type: in vivo, mice; conditions: tumor and healthy tissue areas, long-term drinking water, vs sham
Method: For PD-1 immunofluorescence staining, paraffin sections were deparaffinized in xylene, rehydrated with reduced ethanol concentrations and then washed with deionized water. The slides were then immerged in target retrieval solution (Dako, S1699) and boiled for 20 minutes, followed by 30 minutes permeabilization with 0.25% Triton in PBS at room temperature. A blocking solution consisting in 5% goat serum in PBS was added on the sections for 1 h at room temperature, before adding the rabbit monoclonal anti-mouse PD-1 antibody (Abcam-ab214421, 1:150) in 1% goat serum and incubated overnight at 4° C. The slides were then washed with 0.025% PBS-T and stained with goat anti-rabbit […] secondary antibody (1:200 for 1 h at room temperature, Invitrogen cat. n. A11034). The nuclei were counterstained with DAPI for 15 minutes, washed in PBS, and then mounted with Fluoromount aqueous mounting media (Sigma, F4680). Images were captured with the Hamamatzu Nanozoomer scanner and the fluorescence intensity was quantified by ImageJ.

[5] = long-term BAMLET in drinking water

BAMLET
intestinal gene expression compared to healthy C57BL/6 mice ([1]; BAMLET treated Apc^Min/+ mice in contrast to sham, including cancer related biofunctions): significantly less affected | number of genes regulated at all time points (shared genes) ([1]; BAMLET treated vs sham, cut-off fold change ≥2.0): 2339 | cancer-related biofunctions ([1]; BAMLET treated vs sham, gavage or drinking water, shared genes): inhibited | Wnt/β-catenin signaling (network analysis of shared genes) ([1]; genes regulated at all time points (2w pt, 5w pt, 8w dw), vs sham): inhibited | Wnt/β-catenin signaling pathway, intestinal gene expression ([1]; long-term follow up, BAMLET in drinking water): inhibited | PD-1 pathway activation (gene expression) ([1]; long-term, BAMLET treated Apc^Min/+ mice compared to healthy C57BL/6 mice): reduced PD-1 pathway activation | PD-1 pathway (gene expression) ([1]; long-term, direct comparison BAMLET treated vs sham): most strongly down-regulated | CD44 and its ligand SPP1 (osteopontin) expression ([1]; tumor microenvironment pathway, BAMLET vs sham): most strongly inhibited genes in the tumor microenvironment pathway | principal component analysis of mRNA profiles ([1]; whole intestinal tissue): formed a cluster near the healthy mice and distant from the sham group | colony-forming cells after ten days (HT29 cells): lasting effect | colony-forming cells after ten days (DLD1 cells): lasting effect | polyp number and polyp size ([2]; 20 mg/day in drinking water, after eight weeks): markedly reduced | loss of body weight [2, 5]: prevented | survival (Kaplan-Meier analysis) [2, 5]: increase in survival | total polyp number and polyp size [2, 5]: reduced | number of lung areas with proliferating cells ([3]; TTF-1 / β-catenin stained lung sections, vs sham): markedly reduced | BAMLET staining in lungs, livers or kidneys ([3]; immunohistochemistry, in contrast to the intestine): not detected | β-catenin staining in lungs, livers and kidneys ([3]; long-term BAMLET in drinking water, vs sham): general reduction | macroscopic changes in intestine, peritoneal cavity and major organs ([3]; long-term follow up, vs sham): much less apparent | level of TTF-1 staining in areas with proliferating cells ([3]; lung sections, vs sham): markedly reduced | total polyp number ([4]; 20 mg gavage twice daily for ten days, two and five weeks post oral gavage, vs sham): lower | number of small tumors, fully formed polyps and confluent tumors along the intestinal wall ([4]; Apc^Min/+ mice, H&E sections, BAMLET vs sham (PBS)): reduced | tumor areas ([4]; BAMLET treated Apc^Min/+ mice vs sham group, FIG. 1f): smaller | villus structure ([4]; after short-term BAMLET treatment, H&E sections): normal villus structure was detected in the majority of sections | inflammatory or necrotic changes in the intestines or peripheral organs (healthy C57BL/6 mice; gavage or drinking water, vs untreated controls): no evidence of inflammatory or necrotic changes | genes involved in lipid metabolism, glucose metabolism, insulin tolerance and immune regulation (healthy C57BL/6 mice; intestinal tissue): significantly affected | toxic response (gene expression) (healthy C57BL/6 mice; intestinal tissue): no evidence of a toxic response | number of regulated genes (healthy C57BL/6 mice; intestinal tissue, cut-off fold change ≥1.5, P<0.05): about 150 genes | macroscopic appearance of tissues outside the intestinal tract (healthy C57BL/6 mice; mouse, in vivo): No changes in macroscopic appearance | organ weights (healthy C57BL/6 mice; mouse, in vivo): no change in organ weights | PD-1 staining (PD-1): significantly lower
